Results from US11180510B2, “Xanthine derivatives and uses thereof as inhibitors of bromodomains of BET proteins” (Centre national de la recherche scientifique, priority 2017, dated 2021).
Read-outs that look alike come from different tables or passages of the source.

How the values were obtained:
Molm14 cells = test: Cell Titer-Glo cell viability assay, Molm14; type: cell-based; conditions: Homo sapiens, MOLM-14, 72 h, mean of three experiments, NA = IC50 > maximal concentration used
Procedure: (§1) The human leukemia cell line Jurkat (ATCC® TIB-152) and Molm14 was maintained in RPMI-1640 medium or MEMα, respectively and supplemented both with 10% FBS at 37° C. and 5% CO2.
(§2) In antiproliferative assays, compounds were assayed for their growth inhibiting activity towards the described cancer cell lines using the Cell Titer-Glo Luminescent Cell Viability Assay as described by the manufacturer (Promega Corporation). Briefly, 10.000 cells were plated onto 96 well-plates (white with clear bottom (3610, Corning Costar)) in 90 μL media per well immediately before assay. 10 μL of compounds were added at different concentrations (ranging from 50 μM to 6 nM) to each well and cell cultures were incubated 37° C. during 72 h. Vehicle (DMSO) was used as negative control, JQ1 (a pan-BET inhibitor) was used as positive control and all compounds were tested in constant percentage of DMSO (1%). After addition of 50 μL Cell Titer-GLO, shaking 2 minutes and incubating at room temperature 10 minutes, the Luminescence was measured using a Centro luminometer LB960 (Berthold). Dose-response curves were generated and effective dose 50 values (EC50) were calculated using non-linear regression analysis (Graph Pad Prism).

Jurkat cells = test: Cell Titer-Glo cell viability assay, Jurkat; type: cell-based; conditions: Homo sapiens, 72 h, mean of three experiments, NA = IC50 > maximal concentration used
Procedure: as §1, §2

Brd3(BD1) = Brd3(BD1) (Homo sapiens, UniProt Q15059); test: HTRF BET selectivity profile, Brd3(BD1); type: binding; set-up: GST tagged bromodomain proteins were purchased from BPS Bioscience; purchased BPS Bioscience; conditions: for Ratio 3-1 vs 3-2: selectivity Brd3(BD1) vs Brd3(BD2), HTRF IC50
Procedure: (§3) HTRF assays were performed in white 384 Well Small Volume™ HiBase Polystyrene Microplates (Greiner) with a total working volume of 20 μL. Compounds were dispensed, with 100 nL per well (0.5% final DMSO), from a concentration stock of 10 mM in 100% DMSO and with serial DMSO dilutions, using an Echo® 550 robot from the Access Labcyte platform (Labcyte) and based on the transfer of liquid by acoustic wave. Then, 19.5 μL of buffer is added, using a Multidrop Combi (Thermo Fisher Scientific). […] All HTRF reagents (donor and acceptor) were purchased from CisBio Bioassays and reconstituted according to the supplier protocols. The peptide was purchased from Genic Bio Synthetic. The BRD4(1) protein was produced and purified in the laboratory.
(§4) Percentage of inhibition was calculated using the following equation: % inhibition=[(compound signal)−(min signal)]/[(max signal)−(min signal)]*100, where ‘max signal’ is the signal ratio with the compound vehicle alone (DMSO) and ‘min signal’ the signal ratio without peptide.
(§5) Selectivity profiles of bromodomain inhibitors were performed as described in HTRF screen section. […] HTRF detection reagents (EPIgeneous™ Binding Domain kits) were purchased from Cisbio Bioassays and used according to supplier's protocol. GST tagged bromodomain proteins were purchased from BPS Bioscience and histone peptide from Genic Bio Synthetic.

Brd4(BD2) = target: T1, Brd4(BD2) (Homo sapiens, UniProt O60885); test: HTRF BET selectivity profile, Brd4(BD2); type: binding
T1 construct: GST tagged bromodomain proteins were purchased from BPS Bioscience; purchased BPS Bioscience
Procedure: (§6) HTRF assays were performed in white 384 Well Small Volume™ HiBase Polystyrene Microplates (Greiner) with a total working volume of 20 μL. Compounds were dispensed, with 100 nL per well (0.5% final DMSO), from a concentration stock of 10 mM in 100% DMSO and with serial DMSO dilutions, using an Echo® 550 robot from the Access Labcyte platform (Labcyte) and based on the transfer of liquid by acoustic wave. Then, 19.5 μL of buffer is added, using a Multidrop Combi (Thermo Fisher Scientific). Finally, for each assay, 200 nL of master mix (protein+donor+acceptor) and 200 nL of peptide Is added in the assay wells according to the final concentration and buffer described in Table 3, using the Echo® 550 robot (Labcyte). The IC50 measurements were performed in triplicates (Table 2 and 3). All HTRF reagents (donor and acceptor) were purchased from CisBio Bioassays and reconstituted according to the supplier protocols. The peptide was purchased from Genic Bio Synthetic. The BRD4(1) protein was produced and purified in the laboratory. HTRF signals were measured, after a final incubation (3 h or 6 h or overnight at room temperature or 4° C., according to the bromodomain), using a PHERAstar FS (BMG Labtech) with an excitation filter at 337 nm and fluorescence wavelength measurement at 620 and 665 nm, an integration delay of 60 μs and an integration time of 500 μs. Results were analyzed with a two-wavelengths signal ratio: [intensity (665 nm)/intensity (620 nm)]*104.
as §4, §5

Brd3(BD2) = target: T2, Brd3(BD2) (Homo sapiens, UniProt Q15059); test: HTRF BET selectivity profile, Brd3(BD2); type: binding
T2 construct: GST tagged bromodomain proteins were purchased from BPS Bioscience; purchased BPS Bioscience
Procedure: as §6, §4, §5

BRD4(BD1) [1] = target: T3, BRD4(BD1) (Homo sapiens, UniProt O60885); test: Isothermal Titration Calorimetry; type: binding; conditions: ITC; read-out: Binding affinity (Kd) to BRD4(1) by Isothermal Titration Calorimetry
Procedure: FIG. 1. Isothermal Titration Calorimetry (ITC) of 43c. Thermogram (top) and non-linear least squares fit model of the integrated data (bottom) at 15° C. of Brd4 (BD1) […] as a function of the molar ratio of ligand to the protein.
ITC was used to evaluate the thermodynamics parameters of the binding between BRD4 (BD1) and the selected compounds. Titrations were carried out on a MicroCal ITC200 microcalorimeter (GE Healthcare, Piscataway, N.J.). Each experiment was designed using a titrant concentration (protein in the syringe generally between 100 and 400 μM) set 10 to 15 times the analyte concentration (compound in the cell generally between 10 and 40 μM) and using 13 injections at 25° C. A first small injection (generally 0.2 μL) was included in the titration protocol in order to remove air bubbles trapped in the syringe prior titration. Raw data were scaled after setting the zero to the titration saturation heat value. Integrated raw ITC data were fitted to a one site non-linear least squares fit model using the MicroCal Origin plugin as implemented in Origin 7 (Origin Lab). Finally, ΔG and TΔS values were calculated from the fitted ΔH and KA values using the equations ΔG=−R.T.inKA and ΔG=ΔH−TΔS.

Brdt(BD1) = target: T4, Brdt(BD1) (Homo sapiens, UniProt Q58F21); test: HTRF BET selectivity profile, Brdt(BD1); type: binding
T4 construct: GST tagged bromodomain proteins were purchased from BPS Bioscience; purchased BPS Bioscience
Procedure: as §6, §4, §5

Brd2(BD2) = target: T5, Brd2(BD2) (Homo sapiens, UniProt P25440); test: HTRF BET selectivity profile, Brd2(BD2); type: binding; conditions: read-out: Brd2(BD2) IC50
T5 construct: GST tagged bromodomain proteins were purchased from BPS Bioscience; purchased BPS Bioscience
Procedure: as §3, §4, §5

Brd2(BD1) = target: T6, Brd2(BD1) (Homo sapiens, UniProt P25440); test: HTRF BET selectivity profile, Brd2(BD1); type: binding; conditions: for IC50: read-out: Brd2(BD1) IC50; for Ratio 2-1 vs 2-2: selectivity Brd2(BD1) vs Brd2(BD2), HTRF IC50
T6 construct: GST tagged bromodomain proteins were purchased from BPS Bioscience; purchased BPS Bioscience
Procedure: as §3, §4, §5

BRD4(BD1) [2] = target: T3, BRD4(BD1); test: HTRF assay, BRD4(BD1)/histone peptide interaction; type: binding; set-up: made in house; conditions: for IC50: HTRF; for Ratio 4-1 vs 4-2: selectivity Brd4(BD1) vs Brd4(BD2), HTRF IC50
61 bromodomains = test: Thermal shift assay selectivity profile on 61 bromodomains; type: binding; conditions: compound at 25 μM
Procedure: FIG. 3. Thermal Shift Assay (TSA) of 43c. The evaluation was performed on 61 bromodomains. A cut-off at +/−3.5° C. was set.
TSA “Bromoscan” assays (Reaction Biology) were performed in 384 well RT-PCR plate (BioRad) with a total working volume of 15 μL. The “BromoMelT™, containing the 61 GST- or His-tagged-bromodomains, SYPRO® Orange and a mix compounds as control, was purchased from Reaction Biology. For each point, 3 μL of protein (1×) and 12 μL master mix (buffer+SYPRO® Orange+compound at 25 μM or control mix compounds or DMSO (0.5%)) were mixed in plate. The plate was placed in a CFX384 RTQPC (BioRad), and heated 10 seconds at 25° C., then the temperature was increased from 25° C. to 90° C., by increment of 0.5° C. every 30 seconds. The fluorescence was recorded using FRET filters.

c-Myc = conditions: known inhibitors, background statement; cited from earlier work
[3] = mean of three experiments, NA = IC50 > 50 μM, read-out: Brd4(8D1) IC50
[4] = triplicates, NA = IC50 > maximal concentration of compound used

T5 sequence (P25440 344-453 limits assumed): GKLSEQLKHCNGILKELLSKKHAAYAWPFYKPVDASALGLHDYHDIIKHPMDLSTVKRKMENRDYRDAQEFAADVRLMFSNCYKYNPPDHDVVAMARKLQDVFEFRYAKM
T6 sequence (P25440 74-180 limits assumed): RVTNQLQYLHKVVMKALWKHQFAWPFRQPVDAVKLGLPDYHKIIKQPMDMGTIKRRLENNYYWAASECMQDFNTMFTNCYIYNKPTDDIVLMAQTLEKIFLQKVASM
T2 sequence (Q15059 306-415 limits assumed): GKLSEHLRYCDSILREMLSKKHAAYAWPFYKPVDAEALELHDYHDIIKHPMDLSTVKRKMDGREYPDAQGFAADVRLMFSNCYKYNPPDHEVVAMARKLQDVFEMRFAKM
Chain of Brd3(BD1) (Q15059 34-140 limits assumed): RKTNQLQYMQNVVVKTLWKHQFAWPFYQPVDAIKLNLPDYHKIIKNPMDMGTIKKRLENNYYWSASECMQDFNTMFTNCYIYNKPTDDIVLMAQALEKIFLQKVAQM

Structure (SMILES) | IC50 (Molm14 cells) | IC50 (Jurkat cells) | IC50 (Brd3(BD1)) | Ratio 3-1 vs 3-2 (Brd3(BD1)) | IC50 (Brd4(BD2)) | IC50 (Brd3(BD2)) | Kd (BRD4(BD1) [1]) | IC50 (Brdt(BD1)) | IC50 (Brd2(BD2)) | IC50 (Brd2(BD1)) | Ratio 2-1 vs 2-2 (Brd2(BD1)) | IC50 (BRD4(BD1) [2]; [3]) | IC50 (BRD4(BD1) [2]; [4]) | Ratio 4-1 vs 4-2 (BRD4(BD1) [2]) | IC50 (BRD4(BD1) [2]; read-out: IC50 on BRD4(BD1) activity (concentration that inhibits protein-protein interaction by 50%), triplicates, NA = IC50 > maximal concentration of compound used) | Bromodomain selectivity profile by thermal shift assay (61 bromodomains) | effect on c-Myc expression (c-Myc)
CCn1cnc2c1c(=O)[nH]c(=O)n2Cc1ccc(CNS(=O)(=O)c2ccc(OCc3ccccc3)cc2)cc1 [Compound 31a] | 1.8 µM | 19.4 µM | 0.596 µM | 23 | 9.71 µM | 13.5 µM | 0.433 µM | 8.51 µM | 12.8 µM | 1.46 µM | 9 | 0.355 µM | 0.355 µM | 27 |  | not pan-BET selective | 
CCn1cnc2c1c(=O)[nH]c(=O)n2Cc1ccc(CNS(=O)(=O)c2ccc(Oc3ccccc3)cc2)cc1 [Compound 30c, N-(4-((7-ethyl-2,6-dioxo-1,2,6,7-tetrahydro-3H-purin-3-yl)methyl)benzyl)-4-phenoxybenzenesulfonamide] | 9.2 µM | 10.3 µM | 0.633 µM | 5 | 4.59 µM | 3.16 µM | 0.641 µM | 1.18 µM | 2.49 µM | 0.868 µM | 3 | 0.51 µM | 0.51 µM | 9 |  | BRD4(1) and BRD3(1) selective | 
CCn1cnc2c1c(=O)[nH]c(=O)n2Cc1ccc(CNS(=O)(=O)c2cccc(-c3ccccc3)c2)cc1 [Compound 29c] | 8.9 µM | 6.9 µM | 1.6 µM | 12 | 12.2 µM | 18.9 µM | 1.1 µM | 7.44 µM | 14.7 µM | 5.47 µM | 3 | 0.814 µM | 0.814 µM | 15 |  |  | 
CCn1cnc2c1c(=O)[nH]c(=O)n2Cc1ccc(CNS(=O)(=O)c2ccn(-c3ccccc3)n2)cc1 [Compound 24b] | 10.2 µM | 14.2 µM | 1 µM | 12 | 5.85 µM | 12 µM |  | 6.26 µM | 6.05 µM | 3.33 µM | 2 | 0.846 µM | 0.846 µM | 7 |  |  | 
COc1cc2c(cc1-c1c(C)noc1C)ncc1[nH]c(=O)n([C@H](C)c3ccccn3)c12 [I-BET151] |  |  |  |  |  |  |  |  |  |  |  |  |  |  |  |  | strong downregulation of c-Myc

Now from value to molecule, other results behind:

IC50 (Molm14 cells) | IC50 (Jurkat cells) | IC50 (Brd3(BD1)) | Ratio 3-1 vs 3-2 (Brd3(BD1)) | IC50 (Brd4(BD2)) | IC50 (Brd3(BD2)) | Kd (BRD4(BD1) [1]) | IC50 (Brdt(BD1)) | IC50 (Brd2(BD2)) | IC50 (Brd2(BD1)) | Ratio 2-1 vs 2-2 (Brd2(BD1)) | IC50 (BRD4(BD1) [2]; [3]) | IC50 (BRD4(BD1) [2]; [4]) | Ratio 4-1 vs 4-2 (BRD4(BD1) [2]) | IC50 (BRD4(BD1) [2]; read-out: IC50 on BRD4(BD1) activity (concentration that inhibits protein-protein interaction by 50%), triplicates, NA = IC50 > maximal concentration of compound used) | Structure (SMILES) | Bromodomain selectivity profile by thermal shift assay (61 bromodomains) | effect on c-Myc expression (c-Myc)
9.9 µM | 13.5 µM | 0.507 µM | 6 | 4.05 µM | 3.17 µM |  | 3.47 µM | 3.2 µM | 2.1 µM | 2 | 0.284 µM | 0.284 µM | 14 |  | CCn1cnc2c1c(=O)[nH]c(=O)n2Cc1ccc(CNS(=O)(=O)c2ccc(-c3cc(C)n[nH]3)s2)cc1 [Compound 25a] |  | 
14.8 µM | 6.1 µM | 4.77 µM | 4 | 21.2 µM | 17.4 µM |  | 14 µM | 23.5 µM | 4.18 µM | 7 | 1.59 µM | 1.6 µM | 13 |  | CCn1cnc2c1c(=O)[nH]c(=O)n2Cc1ccc(CNS(=O)(=O)c2ccc3scnc3c2)cc1 [Compound 25c] |  | 
 | 39.5 µM | 0.456 µM | 8 | 2.78 µM | 3.47 µM | 0.129 µM | 0.356 µM | 1.61 µM | 0.336 µM | 5 | 0.283 µM |  | 10 | 0.283 µM | CCn1cnc2c1c(=O)[nH]c(=O)n2Cc1ccc(CNS(=O)(=O)c2ccc3c(c2)CCCC(=O)N3)cc1 [Compound 27c] | pan-BET selective | 
11.1 µM | 5.2 µM | 1.54 µM | 8 | 12.8 µM | 12.4 µM |  | 7.44 µM | 10.5 µM | 1.38 µM | 8 | 0.779 µM | 0.779 µM | 16 |  | CCn1cnc2c1c(=O)[nH]c(=O)n2Cc1ccc(CNS(=O)(=O)c2cc3ccccc3s2)cc1 [Compound 25b] |  | 
